The values that follow are results of earlier work, collected in US20140329781A1, “METHODS FOR TREATING CARDIOVASCULAR DISORDER” (WOCKHARDT LIMITED, priority 2011, published 2014).

For series [1] the following is noted: water.
A further series has as its target albumin (Homo sapiens, UniProt P02768).

Sequence of albumin (P02768 25-609, species assumed): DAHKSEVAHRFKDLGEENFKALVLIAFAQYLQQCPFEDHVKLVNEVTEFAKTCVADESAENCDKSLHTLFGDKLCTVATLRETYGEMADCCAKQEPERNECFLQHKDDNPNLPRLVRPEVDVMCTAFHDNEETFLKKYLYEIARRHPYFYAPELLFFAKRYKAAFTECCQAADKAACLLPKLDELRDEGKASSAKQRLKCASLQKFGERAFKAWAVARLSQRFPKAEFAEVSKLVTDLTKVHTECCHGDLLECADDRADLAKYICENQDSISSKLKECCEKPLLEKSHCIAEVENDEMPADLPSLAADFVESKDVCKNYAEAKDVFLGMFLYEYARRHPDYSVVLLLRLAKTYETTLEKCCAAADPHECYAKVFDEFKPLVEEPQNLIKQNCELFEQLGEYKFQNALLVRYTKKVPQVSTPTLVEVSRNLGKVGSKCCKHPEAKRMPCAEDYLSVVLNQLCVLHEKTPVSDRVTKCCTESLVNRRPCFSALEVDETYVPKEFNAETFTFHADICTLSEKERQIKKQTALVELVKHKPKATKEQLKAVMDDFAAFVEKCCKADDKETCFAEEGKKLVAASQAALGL

As for `COCCc1ccc(OCC(O)CNC(C)C)cc1` (centres unmarked) [Metoprolol], the bioavailability result (incomplete due to extensive first pass metabolism) is “about 50%”. The “solubility (in words)” value in series [1] was “highly soluble”.
`COC(=O)[C@H](c1ccccc1Cl)N1CCc2sccc2C1` [Clopidogrel]: the “protein bound to albumin” value at albumin was 94-98%. Besides, the “bioavailability (in words)” value (extensive first pass metabolism in the liver) is recorded as “low”. Further, the “solubility (in words)” value in series [1] is given as “poorly water-soluble”.
